This is an account of results in patent US6589950B1, “Purine derivatives inhibitors of tyrosine protein kinase SYK” (Novartis AG, priority 1999, dated 2003).

pIC50: −log10 of the molar value. Structures can show the parent of a compound that is named as a salt.

The melting point is the temperature of the solid-liquid transition.

The target of one data set is syk kinase (Homo sapiens, UniProt P43405). Briefly: syk kinase peptide phosphorylation scintillation proximity assay (SPA). The conditions noted are these: biotin-EDPDYEWPSA substrate, 33P-ATP, SPA beads, room temperature 30 minutes; read-out: IC50 (concentration at which 50% inhibition of syk kinase phosphorylation occurs). Format: biochemical. From the text: Compounds of formula I in free or salt form are useful as pharmaceuticals. Accordingly the invention also provides a compound of formula I in free or pharmaceutically acceptable salt form for use as a pharmaceutical. The compounds of formula I in free or pharmaceutically acceptable salt form, hereinafter referred to alternatively as “agents of the invention”, inhibit the activity of the tyrosine protein kinase syk, which is an activator of pro-inflammatory cells driving an allergic response.
In this assay the effect of an agent of the invention on the phosphorylation of a peptide by syk kinase is determined. The phosphate is transferred from the terminal phosphate of adenosine triphosphate (ATP) to the biotin-modified peptide biotin-EDPDYEWPSA (available from Genosys) which is a known specific substrate for syk. When ^33P-phosphorylated peptide binds to streptavidin-polyvinyltoluene (PVT) Scintillation Proximity Assay (SPA) beads (available from Amersham), the emitted β-particles excite the fluorophore in the beads and produce light.
To the wells of an Optiplate (Canberra Packard) are added (i) the compound under test in DMSO/distilled water (10 μl), (ii) 20 μl of a composition formed by mixing 1 mM biotin-EDPDYEWPSA (5.5 μl), 300 μM ATP (18.3 μl), and ^33P-ATP in sufficient amount to add 0.1 μCi ^33P-ATP per well (1.1 μl on the day of production) and making up the volume to 2.2 ml with a buffer (Buffer A) prepared by dissolving tris-base (0.36 g) in distilled water (80 ml), adjusting the pH to 7.5 with 1M hydrochloric acid, adding 1M aqueous MgCl2 (1.5 ml), 50 mM aqueous sodium orthovanadate (30 μl) and 1M aqueous dithiothrietol (150 μl), and making the volume up to 120 ml with distilled water, (iii) 0.5% w/v syk kinase in Buffer A (20 μl). The plate is incubated at room temperature for 30 minutes with shaking, the reaction is then terminated by addition to all wells of 150 μl of a mixture prepared by reconstituting 500 mg Streptavidin-PVT SPA beads in 373 ml of Tris-buffered saline containing 673.6 g cesium chloride, 20 ml 0.5M EDTA and 27.5 mg ATP (disodium salt) per litre. The plate is again incubated at room temperature for 30 minutes with shaking, then sealed using Top Seal-S (Canberra Packard) according to the manufacturer's instructions and left to stand at room temperature for 1 hour. The resulting scintillations are counted using a Packard TopCount, each well being counted for 1 minute.
The procedure is repeated for different concentrations of test compound selected to cover the range of 0% to 100% inhibition and the concentration at which 50% inhibition of syk kinase phosphorylation occurs (IC50) for each compound is determined from concentration-inhibition curves in a conventional manner.
In general terms: SPA uses beads or plates that emit light when radiolabelled molecules are held near them.
Regarding `CC(C)(C)OC(=O)Nc1ccc(Nc2nc(NC3CC3)c3nc[nH]c3n2)cc1` [Example 3], the pIC50 was 8.30. Still for that read-out and setting: with `c1nc2c(NC3CC3)nc(Nc3ccc(N4CCOCC4)cc3)nc2[nH]1` [Example 5] the figure was 8.05; with `CC(=O)N(C)c1ccc(Nc2nc(NC3CCC3)c3nc[nH]c3n2)cc1` [Example 6], 8.00. For the compound `CN1CCN(c2ccc(Nc3nc(NC4CC4)c4nc[nH]c4n3)cc2)CC1` [Example 102], the pIC50 is 8.30. The same measure, in the same setting: then `CC(=O)N1CCN(c2ccc(Nc3nc(NC4CC4)c4nc[nH]c4n3)cc2)CC1` [Example 103], with 8.70; and `CC(=O)N1CCN(c2ccc(Nc3nc(NC4CCC4)c4nc[nH]c4n3)cc2)CC1` [Example 104], with 8.44. With `CC(=O)N(C)c1ccc(Nc2nc(NC(C)(C)C)c3nc[nH]c3n2)cc1` [Example 138], the pIC50 was 7.85.

With `CCN(C(C)=O)c1ccc(Nc2nc(NC(C)C)c3nc[nH]c3n2)cc1` [Example 170], the pIC50 is 8.00.

System in a further data set: not given
Test: not given
Conditions: not given
Compound `CC(=O)N(C)c1ccc(Nc2nc(NC3CCC3)c3nc[nH]c3n2)cc1` (as salt: HCl) [Example 6] showed a melting point of 314 to 318 °C.

The compound `c1nc2c(NC3CC3)nc(Nc3ccc(N4CCOCC4)cc3)nc2[nH]1` [Example 5] showed a melting point of 201.9 to 203.7 °C. On the same count and under the same terms, with `c1ccc(Nc2nc(NC3CCC3)c3[nH]cnc3n2)cc1` [Example 121, 6-Cyclobutylamino-2-anilinopurine] the figure was 312 to 314 °C; with `CC(=O)N(C)c1ccc(Nc2nc(NC(C)(C)C)c3nc[nH]c3n2)cc1` [Example 138], 273 to 274 °C.
